Our source for the IC50 values is patent EP0725790B1, “SUBSTITUTED TETRA- AND PENTAPEPTIDE INHIBITORS OF PROTEIN:FARNESYL TRANSFERASE” (PARKE DAVIS & COMPANY, priority 1993, dated 1995).

Non-standard residues stand in square brackets, D forms with d. Residues, ends and D or L forms follow the SMILES beside them. *: point of attachment. pY = N[C@@H](Cc1ccc(OP(=O)(O)O)cc1)C(=O)O; Cbz = O=C(OCc1ccccc1)*; Bn = c1ccc(C*)cc1; NHNH2 = NN*

This experiment deals with T1, rat brain farnesyl protein transferase (Rattus norvegicus, UniProt Q02293+Q04631).
T1 construct: 40-fold purified rat brain farnesyl protein transferase; from tissue; host or cells: rat brain
The experiment in a line: PFT inhibitory activity assay (radiolabeled farnesyl pyrophosphate, biotinylated peptide substrate, streptavidin beads). The note with it: 40-fold purified enzyme; 30 mM potassium phosphate buffer, pH 7.4; 37°C for 30 minutes; farnesyl pyrophosphate 0.12 µM, (biotinyl)-Ahe-Tyr-Lys-Cys-Val-Ile-Met 0.1 µM. It is filed as biochemical. The procedure: The PFT inhibitory activity of compounds of Formula I was assayed in 30 mM potassium phosphate buffer, pH 7.4, containing 7 mM DTT, 1.2 mM MgCl2, 0.1 mM leupeptin, 0.1 mM pepstatin, and 0.2 mM phenylmethylsulfonyl fluoride. Assays were performed in 96 well plates (Wallec) and employed solutions composed of varying concentrations of a compound of Formula I in 100% DMSO. Upon addition of both substrates, radiolabeled farnesyl pyrophosphate ([1-^3H], specific activity 15-30 Ci/mmol, final concentration 0.12 µM) and (biotinyl)-Ahe-Tyr-Lys-Cys-Val-Ile-Met peptide (final concentration 0.1 µM), the enzyme reaction was started by addition of 40-fold purified rat brain farnesyl protein transferase. After incubation at 37°C for 30 minutes, the reaction was terminated by diluting the reaction 2.5-fold with a stop buffer containing 1.5 M magnesium acetate, 0.2 M H3PO4, 0.5% BSA, and strepavidin beads (Amersham) at a concentration of 1.3 mg/mL. After allowing the plate to settle for 30 minutes at room temperature, radioactivity was quantitated on a microBeta counter (model 1450, Wallec).
`COC(=O)[C@H](Cc1c[nH]c2ccccc12)NC(=O)[C@H](COCc1ccccc1)NC(=O)[C@H](Cc1ccc(OCc2ccccc2)cc1)NC(=O)[C@H](Cc1c[nH]cn1)NC(=O)OCc1ccccc1` [Cbz-His-Tyr(OBn)-Ser(OBn)-Trp- OMe, N-[N-[N-[N-[(Phenylmethoxy)carbonyl]-L-histidyl]-O-(phenylmethyl)-L-tyrosyl]-O-(phenylmethyl)-L-seryl]-L-tryptophan, methyl ester] (Cbz-HY(Bn)S(Bn)W-OMe): half-maximal inhibition (IC50) was put at 115 nM.

Take `C[C@@H](NC(=O)[C@H](Cc1c[nH]c2ccccc12)NC(=O)[C@H](COCc1ccccc1)NC(=O)[C@H](Cc1ccc(OCc2ccccc2)cc1)NC(=O)[C@H](Cc1c[nH]cn1)NC(=O)OCc1ccccc1)C(=O)O` [Cbz-His-Tyr(OBn)-Ser(OBn)-Trp-DAla- OH, Cbz-His-Tyr(OBn)-Ser(OBn)-Trp-D-Ala] (Cbz-HY(Bn)S(Bn)W[dA]-OH): the half-inhibitory concentration (IC50) was 48 nM.

Compound `C[C@H](NC(=O)[C@H](COCc1ccccc1)NC(=O)[C@H](Cc1ccc(OCc2ccccc2)cc1)NC(=O)[C@H](Cc1c[nH]cn1)NC(=O)OCc1ccccc1)C(=O)N[C@H](C)C(N)=O` [Cbz-His-Tyr (OBn)-Ser(OBn)-Ala-DAla-NH2, Cbz-His-Tyr(OBn)-Ser(OBn)-Ala-D-Ala- NH2] (Cbz-HY(Bn)S(Bn)A[dA]-NH2) returned an IC50 of 330 nM.

Consider `C[C@H](NC(=O)[C@H](Cc1c[nH]c2ccccc12)NC(=O)[C@H](COCc1ccccc1)NC(=O)[C@H](Cc1ccc(OCc2ccccc2)cc1)NC(=O)[C@H](Cc1c[nH]cn1)NC(=O)OCc1ccccc1)C(N)=O` [Cbz-His-Tyr(OBn)-Ser(OBn)-Trp-Ala-NH2, Cbz-His-Tyr(OBn)-Ser(OBn)-Trp-Ala- NH2] (Cbz-HY(Bn)S(Bn)WA-NH2), for which the IC50 is 15 nM.

`C[C@@H](NC(=O)[C@H](Cc1c[nH]c2ccccc12)NC(=O)[C@H](COCc1ccccc1)NC(=O)[C@H](Cc1ccc(OP(=O)(O)O)cc1)NC(=O)[C@H](Cc1c[nH]cn1)NC(=O)OCc1ccccc1)C(N)=O` [Cbz-His-Tyr(OPO3H2)-Ser(OBn)-Trp-DAla- NH2] (Cbz-H[pY]S(Bn)W[dA]-NH2) displayed an IC50 of 9 nM.

For the compound `CCNC(=O)[C@@H](C)NC(=O)[C@H](Cc1c[nH]c2ccccc12)NC(=O)[C@H](COCc1ccccc1)NC(=O)[C@H](Cc1ccc(OCc2ccccc2)cc1)NC(=O)[C@H](Cc1c[nH]cn1)NC(=O)OCc1ccccc1` [Cbz-His-Tyr(OBn)-Ser(OBn)-Trp-DAla- NHEt, Cbz-His-Tyr(OBn)-Ser(OBn)-Trp-D-Ala- NHEt] (Cbz-HY(Bn)S(Bn)W[dA]-NHEt), the half-maximal inhibitory concentration (IC50) was found to be 230 nM.

With `C[C@@H](NC(=O)[C@H](Cc1c[nH]c2ccccc12)NC(=O)[C@H](COCc1ccccc1)NC(=O)[C@H](Cc1ccccc1)NC(=O)[C@H](Cc1c[nH]cn1)NC(=O)OCc1ccccc1)C(N)=O` [Cbz-His-Phe-Ser(OBn)-Trp-DAla-NH2, Cbz-His-Phe-Ser(OBn)-Trp-D-Ala- NH2] (Cbz-HFS(Bn)W[dA]-NH2), the IC50 turned out to be 10 nM.

For the compound `C[C@@H](NC(=O)[C@H](Cc1c[nH]c2ccccc12)NC(=O)[C@H](COCc1ccccc1)NC(=O)[C@H](Cc1ccc(O)cc1)NC(=O)[C@H](Cc1c[nH]cn1)NC(=O)OCc1ccccc1)C(N)=O` [Cbz-His-Tyr-Ser(OBn)-Trp-DAla-NH2, Cbz-His-Tyr-Ser(OBn)-Trp-D-Ala- NH2] (Cbz-HYS(Bn)W[dA]-NH2), the IC50 was found to be 40 nM.

`C[C@@H](NC(=O)[C@H](Cc1c[nH]c2ccccc12)NC(=O)[C@H](COCc1ccccc1)NC(=O)[C@H](Cc1ccc(OCc2ccccc2)cc1)NC(=O)[C@H](Cc1c[nH]cn1)NC(=O)OCc1ccccc1)C(=O)NN` [Cbz-His-Tyr(OBn)-Ser(OBn)-Trp-D-Ala- NHNH2] (Cbz-HY(Bn)S(Bn)W[dA]-NHNH2) came in with an IC50 of 62 nM.

For `C[C@@H](NC(=O)[C@H](Cc1c[nH]c2ccccc12)NC(=O)[C@H](COCc1ccccc1)NC(=O)[C@@H](Cc1ccc(OCc2ccccc2)cc1)NC(=O)[C@H](Cc1c[nH]cn1)NC(=O)OCc1ccccc1)C(N)=O` [Cbz-His-DTyr(OBn)-Ser(OBn)-Trp-DAla-NH2, Cbz-His-D-Tyr(OBn)-Ser(OBn)-Trp-D-Ala- NH2] (Cbz-H[dY](Bn)S(Bn)W[dA]-NH2), it took 39 nM to reach half-maximal inhibition (IC50).

Compound `COC(=O)[C@@H](C)NC(=O)[C@H](Cc1c[nH]c2ccccc12)NC(=O)[C@H](COCc1ccccc1)NC(=O)[C@H](Cc1ccc(OCc2ccccc2)cc1)NC(=O)[C@H](Cc1c[nH]cn1)NC(=O)OCc1ccccc1` [Cbz-His-Tyr(OBn)-Ser(OBn)-Trp-DAla-OMe, Cbz-His-Tyr(OBn)-Ser(OBn)-Trp-D-Ala-OMe] (Cbz-HY(Bn)S(Bn)W[dA]-OMe) displayed a half-inhibitory concentration (IC50) of 19 nM.

For `C[C@@H](NC(=O)[C@H](Cc1c[nH]c2ccccc12)NC(=O)[C@H](CS)NC(=O)[C@H](Cc1ccc(OCc2ccccc2)cc1)NC(=O)[C@H](Cc1c[nH]cn1)NC(=O)OCc1ccccc1)C(N)=O` [Cbz-His-Tyr (OBn)-Cys-Trp-DAla-NH2] (Cbz-HY(Bn)CW[dA]-NH2), the half-inhibitory concentration (IC50) was determined as 4 nM.

Compound `C[C@@H](NC(=O)[C@H](Cc1c[nH]c2ccccc12)NC(=O)[C@H](COCc1ccccc1)NC(=O)[C@H](Cc1ccc(OCc2ccccc2)cc1)NC(=O)[C@H](Cc1c[nH]cn1)NC(=O)OCc1ccccc1)C(N)=O` [Cbz-His-Tyr(OBn)-Ser(OBn)-Trp-DAla- NH2, Nα-[N-[N-[N-[N-[(Phenylmethoxy)carbonyl]-L-histidyl]-O-(phenylmethyl)-L-tyrosyl]-O-(phenylmethyl)-L-seryl]-Ltryptophyl]-D-alaninamide] (Cbz-HY(Bn)S(Bn)W[dA]-NH2) gave an IC50 of 17 nM.

In turn, `C[C@@H](NC(=O)[C@H](Cc1c[nH]c2ccccc12)NC(=O)[C@H](COCc1ccccc1)NC(=O)[C@H](Cc1ccc(OCc2ccccc2)cc1)NC(=O)[C@@H](Cc1c[nH]cn1)NC(=O)OCc1ccccc1)C(N)=O` [Cbz-DHis-Tyr (OBn)-Ser(OBn)-Trp-DAla-NH2, Cbz-D-His-Tyr(OBn)-Ser(OBn)-Trp-D-Ala- NH2] (Cbz-[dH]Y(Bn)S(Bn)W[dA]-NH2) registered a 50% inhibitory concentration (IC50) of 120 nM.

On to `NC(=O)[C@H](Cc1c[nH]c2ccccc12)NC(=O)[C@H](COCc1ccccc1)NC(=O)[C@H](Cc1ccc(OCc2ccccc2)cc1)NC(=O)[C@H](Cc1c[nH]cn1)NC(=O)OCc1ccccc1` [Cbz-His-Tyr(OBn)-Ser(OBn)-Trp-NH2, Cbz-His-Tyr(OBn)-Ser(OBn)-Trp- NH2] (Cbz-HY(Bn)S(Bn)W-NH2), for which the IC50 turned out to be 83 nM.

`C[C@@H](NC(=O)[C@H](Cc1c[nH]c2ccccc12)NC(=O)[C@H](CO)NC(=O)[C@H](Cc1ccc(OCc2ccccc2)cc1)NC(=O)[C@H](Cc1c[nH]cn1)NC(=O)OCc1ccccc1)C(N)=O` [Cbz-His-Tyr(OBn)-Ser-Trp-DAla-NH2, Cbz-His-Tyr(OBn)-Ser-Trp-D-Ala- NH2] (Cbz-HY(Bn)SW[dA]-NH2) displayed a half-maximal inhibitory concentration (IC50) of 1800 nM.

As a reminder, the IC50 is the concentration that inhibits the measured activity by half. Lower therefore signals inhibition by little substance.
